Results on 19 compounds are retold here after US10526337B2, “Heteroaryl derivative or pharmaceutically acceptable salt thereof, preparation method therefor, and pharmaceutical composition for preventing or treating diseases associated with PI3 kinases, containing same as active ingredient” (KOREA RESEARCH INSTITUTE OF CHEMICAL TECHNOLOGY, priority 2015, dated 2020).

Molecules are shown by their SMILES.

Test [1] addresses T1, PI3 Kinase (p110δ/p85α) (h) (Homo sapiens, UniProt O00329).
T1 construct: endogenous in cells; host or cells: Raji
Briefly: Inhibition of phosphatidylinositol 3-kinase delta (PI3K δ), pAkt Western blotting in IgM-stimulated Raji cells. Format: cell-based. The settings on record: ATP=10 uM, sample concentration=100 nM. As to the method:
(§1) The stimulated cells were transferred in a 1.5 mL tube, followed by centrifugation at 3000 rpm for 1 minute. 100 μL of RIPA buffer (radioimmunoprecipitation assay buffer, 50 mM Tris-HCl, 5 mM EDTA, 150 mM NaCl, 1% NP-40, 1 mM PMSF, pH 8.0; ELPIS, Korea) was added thereto, which was stored in a 4° C. refrigerator for 12 hours. Centrifugation was performed at 4° C. at 14,000 rpm for 20 minutes. The supernatant was transferred into a new 1.5 mL tube. Protein was quantified by BCA (bicinchoninic acid) method and samples were prepared. The composition of the sample was as follows: sample buffer (ELPIS, EBA-1052) 5×, protein 10 μg, and 1× sample buffer to make the total volume 20 μL. The sample was heated at 100° C. for 5 minutes. The evaporated water vapor was condensed in a refrigerator. The liquid stained on the wall was fallen down by centrifugation for a few seconds. The sample proceeded to 10% SDS (Sodium Dodecyl Sulfate) acrylamide gel for separation. The separated protein was transferred onto PVDF (poly-vinyl difluoride) membrane, followed by reaction with pAkt (phospho protein kinase B) antibody (Ser473 or Thr308; Cell signaling, 9271s or 13038s) for 12 hours at 4° C. The membrane was washed with TBST (Tris-Buffered Saline with Tween 20, 10 mM Tris-HCl, pH 7.5, 150 mM NaCl, 0.1% Tween-20) three times for 5 minutes each, to which the secondary antibody (rabbit antibody, Santacruz, sc-2004) was added, followed by reaction at room temperature for 2 hours. The membrane was washed with TBST three times for 10 minutes each, to which ECL (enhanced chemiluminescence, Thermo, NCI34095KR) was sprayed. Bands were investigated by using LAS-3000.
The inhibition of phosphatidylinositol 3 kinase delta (PI3K δ) by those compounds prepared in Examples 1˜98 was investigated by the following experiment. The inhibition activity of each compound was measured in the following conditions: ATP=10 uM, and sample concentration=100 nM.
(§2) Raji cells cultured in RPMI1640 (Hyclone, SH30027.02) supplemented with 10% fetal bovine serum (Hyclon, USA) were distributed in a 12-well plate at the density of 1,000,000 cells/well. The cells were stabilized in a 37° C. CO2 for 24 hours and then treated with each compound for 1 and half hours. The cells were treated with 0.25 μg/mL of IgM (immunoglobulin M, Southern Biotech, USA) to increase the intracellular activity of PI3K delta. 30 minutes later, the medium was discarded and the cells were washed with cold PBS (phosphate buffered saline, Gibco, 14190-250). PBS was then eliminated completely by using a pipette. Western blotting was performed according to the same manner as described in step 2 of Experimental Example 1 to evaluate the intracellular PI3K delta activity.

Test [2] has as its target T2, PI3 Kinase (p120γ) (h) (Homo sapiens, UniProt P48736).
T2 construct: endogenous in cells; host or cells: RAW264.7
Nature of the test: Inhibition of phosphatidylinositol 3-kinase gamma (PI3K γ), pAkt Western blotting in C5a-stimulated RAW264.7 macrophages. In kind it is cell-based, mouse. The settings on record: ATP=10 uM, sample concentration=100 nM. As to the method: as §1
The inhibition of phosphatidylinositol 3 kinase gamma (PI3K γ) by those compounds prepared in Examples 1˜98 was investigated by the following experiment. The inhibition activity of each compound was measured in the following conditions: ATP=10 uM, and sample concentration=100 nM.
as §2, with “Macrophages (RAW264.7)” for “Raji cells”, “DMEM (Dulbecco's Modified Eagle Medium, Hyclon, SH30243.01)” for “RPMI1640 (Hyclone, SH30027.02)”, “10 ng/mL” for “0.25 μg/mL”, “C5a (complement component 5a, 10 μg/mL; R&D, 2150-C5)” for “IgM (immunoglobulin M, Southern Biotech, USA)”, “gamma. 5” for “delta. 30”, “gamma” for “delta”

T1 sequence (O00329 whole entry): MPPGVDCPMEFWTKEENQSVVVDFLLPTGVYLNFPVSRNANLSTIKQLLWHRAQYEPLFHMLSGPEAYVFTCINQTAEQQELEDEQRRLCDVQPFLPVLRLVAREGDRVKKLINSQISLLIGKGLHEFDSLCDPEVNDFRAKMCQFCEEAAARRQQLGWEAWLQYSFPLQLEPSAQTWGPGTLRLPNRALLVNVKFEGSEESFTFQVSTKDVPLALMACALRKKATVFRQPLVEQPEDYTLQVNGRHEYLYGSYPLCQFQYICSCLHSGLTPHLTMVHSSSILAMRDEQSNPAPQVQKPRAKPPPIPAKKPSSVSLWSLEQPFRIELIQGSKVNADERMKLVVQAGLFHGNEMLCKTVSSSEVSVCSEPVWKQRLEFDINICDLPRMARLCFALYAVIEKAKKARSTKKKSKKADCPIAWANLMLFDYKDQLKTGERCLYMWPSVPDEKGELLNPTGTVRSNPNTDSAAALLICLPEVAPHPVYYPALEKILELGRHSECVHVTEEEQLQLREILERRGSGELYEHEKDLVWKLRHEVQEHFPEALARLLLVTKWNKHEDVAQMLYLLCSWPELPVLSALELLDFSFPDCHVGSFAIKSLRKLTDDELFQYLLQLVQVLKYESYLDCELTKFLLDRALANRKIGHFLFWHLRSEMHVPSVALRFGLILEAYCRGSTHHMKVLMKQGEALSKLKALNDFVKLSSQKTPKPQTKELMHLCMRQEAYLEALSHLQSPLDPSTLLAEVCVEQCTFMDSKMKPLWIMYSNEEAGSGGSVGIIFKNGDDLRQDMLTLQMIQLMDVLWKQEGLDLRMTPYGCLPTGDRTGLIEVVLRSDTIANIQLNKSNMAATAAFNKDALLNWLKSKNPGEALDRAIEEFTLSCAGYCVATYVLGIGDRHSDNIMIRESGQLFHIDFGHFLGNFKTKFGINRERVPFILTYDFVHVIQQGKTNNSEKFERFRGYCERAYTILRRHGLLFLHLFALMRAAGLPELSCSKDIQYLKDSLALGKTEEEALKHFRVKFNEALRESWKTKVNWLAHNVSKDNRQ
T1 sequence (P27986 whole entry partner): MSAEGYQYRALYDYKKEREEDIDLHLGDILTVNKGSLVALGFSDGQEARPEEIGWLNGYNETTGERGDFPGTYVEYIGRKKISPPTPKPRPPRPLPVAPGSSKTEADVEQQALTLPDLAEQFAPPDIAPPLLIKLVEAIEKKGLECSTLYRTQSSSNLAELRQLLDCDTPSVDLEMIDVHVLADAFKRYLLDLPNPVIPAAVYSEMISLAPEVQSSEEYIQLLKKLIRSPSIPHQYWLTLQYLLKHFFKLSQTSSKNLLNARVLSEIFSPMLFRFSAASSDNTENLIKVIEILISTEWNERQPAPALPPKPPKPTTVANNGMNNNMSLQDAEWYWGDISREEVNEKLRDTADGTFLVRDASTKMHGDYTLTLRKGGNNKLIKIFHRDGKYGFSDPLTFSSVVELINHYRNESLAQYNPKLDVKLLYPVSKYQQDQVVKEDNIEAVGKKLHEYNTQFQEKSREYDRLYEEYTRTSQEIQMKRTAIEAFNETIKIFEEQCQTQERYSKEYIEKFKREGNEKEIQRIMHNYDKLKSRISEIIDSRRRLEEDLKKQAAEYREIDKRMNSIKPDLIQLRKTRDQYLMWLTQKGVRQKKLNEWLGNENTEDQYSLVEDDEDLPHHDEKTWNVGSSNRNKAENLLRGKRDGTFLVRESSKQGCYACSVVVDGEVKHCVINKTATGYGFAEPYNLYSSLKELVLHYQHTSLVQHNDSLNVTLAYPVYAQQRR
T2 sequence (P48736 whole entry): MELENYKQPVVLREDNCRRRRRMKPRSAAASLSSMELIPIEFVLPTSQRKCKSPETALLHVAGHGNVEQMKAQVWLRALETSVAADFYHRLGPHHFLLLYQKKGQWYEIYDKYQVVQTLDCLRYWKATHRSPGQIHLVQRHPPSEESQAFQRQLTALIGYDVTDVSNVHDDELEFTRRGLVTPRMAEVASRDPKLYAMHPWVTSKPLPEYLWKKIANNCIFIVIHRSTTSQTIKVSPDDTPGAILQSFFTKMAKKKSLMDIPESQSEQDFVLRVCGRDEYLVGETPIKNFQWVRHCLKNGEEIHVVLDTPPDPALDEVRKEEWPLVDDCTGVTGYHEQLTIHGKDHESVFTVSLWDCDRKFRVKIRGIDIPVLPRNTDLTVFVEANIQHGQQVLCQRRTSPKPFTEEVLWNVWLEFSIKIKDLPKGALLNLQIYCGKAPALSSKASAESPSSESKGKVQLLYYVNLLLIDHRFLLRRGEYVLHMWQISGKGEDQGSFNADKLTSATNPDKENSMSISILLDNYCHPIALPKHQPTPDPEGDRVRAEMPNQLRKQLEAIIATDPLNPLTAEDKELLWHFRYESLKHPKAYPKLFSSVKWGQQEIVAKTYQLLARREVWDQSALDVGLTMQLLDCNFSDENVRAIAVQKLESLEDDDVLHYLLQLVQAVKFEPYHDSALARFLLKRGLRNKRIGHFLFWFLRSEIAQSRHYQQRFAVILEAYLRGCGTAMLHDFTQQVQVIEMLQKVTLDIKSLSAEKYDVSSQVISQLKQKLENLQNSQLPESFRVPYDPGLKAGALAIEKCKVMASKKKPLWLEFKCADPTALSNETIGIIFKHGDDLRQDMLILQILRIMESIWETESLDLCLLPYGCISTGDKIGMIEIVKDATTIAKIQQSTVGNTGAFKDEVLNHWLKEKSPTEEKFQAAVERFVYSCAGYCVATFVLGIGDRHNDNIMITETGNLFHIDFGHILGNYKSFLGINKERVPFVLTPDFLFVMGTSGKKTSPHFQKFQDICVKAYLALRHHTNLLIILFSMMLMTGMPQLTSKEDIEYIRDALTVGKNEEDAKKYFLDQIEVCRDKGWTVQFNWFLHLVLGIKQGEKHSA

Turning to `CC(C)N1CNc2ncnc(N[C@@H](C)c3cc4cccc(Cl)c4c(=O)n3-c3ccccc3)c2C1=O` [Example 64, (S)-5-(1-(8-chloro-1-oxo-2-phenyl-1,2-dihydroisoquinoline-3-yl)ethylamino)-3-isopropyl-2,3-dihydropyrimido[4,5-d]pyrimidine-4(1H)-one], the IC50 in test [1] and in test [2] was above 500 nM throughout.
For `Cc1cccc(-n2c([C@H](C)Nc3ncnc4[nH]cnc(=O)c34)nc3cccc(Cl)c3c2=O)c1` [Example 69, (S)-5-((1-(5-chloro-4-oxo-3-(m-tolyl)-3,4-dihydroquinazoline-2-yl)ethyl)amino)pyrimido[4,5-d]pyrimidine-4(1H)-one], the half-maximal inhibitory concentration (IC50) in test [1] was 10 to 500 nM; in test [2], above 500 nM.
On the same counts, the results for `O=c1nc[nH]c2ncnc(N3CCC[C@H]3c3cc4cccc(Cl)c4c(=O)n3-c3cccnc3)c12` [Example 75, (S)-5-(2-(8-chloro-1-oxo-2-(pyridine-3-yl)-1,2-dihydroisoquinoline-3-yl)pyrrolidine-1-yl)pyrimido[4,5-d]pyrimidine-4(1H)-one] are 10 to 500 nM and above 500 nM.
As for `C[C@H](Nc1ncnc2[nH]ccc(=O)c12)c1nc2ccc(F)cc2c(=O)n1Cc1ccccn1` [Example 32, (S)-4-((1-(6-fluoro-4-oxo-3-(pyridine-2-ylmethyl)-3,4-dihydroquinazoline-2-yl)ethyl)amino)pyrido[2,3-d]pyrimidine-5(8H)-one], the IC50 in test [1] was above 500 nM.
For the compound `CN1CNc2nc(N)nc(N3CCC[C@H]3c3nc4cccc(Cl)c4c(=O)n3-c3cccnc3)c2C1=O` [Example 56, (S)-7-amino-5-(2-(5-chloro-4-oxo-3-(pyridine-3-yl)-3,4-dihydroquinazoline-2-yl)pyrrolidine-1-yl)-3-methyl-2,3-dihydropyrimido[4,5-d]pyrimidine-4(1H)-one], the IC50 in test [1] and in test [2] was above 500 nM each time.
Regarding `C[C@H](Nc1ncnc2c1C(=O)N(C)CN2)c1cc2ccccc2nc1-c1ccccc1` [Example 39-1, (S)-3-methyl-5-((1-(2-phenylquinoline-3-yl)ethyl)amino)-2,3-dihydropyrimido[4,5-d]pyrimidine-4(1H)-one], the results for the IC50 in test [1] and in test [2] were 10 to 500 nM and below 10 nM, respectively.
On the same counts, the results for `O=c1nc[nH]c2ncnc(N3CCC[C@H]3c3nc4cccc(Cl)c4c(=O)n3-c3ccccc3)c12` [Example 74, (S)-5-(2-(5-chloro-4-oxo-3-phenyl-3,4-dihydroquinazoline-2-yl)pyrrolidine-1-yl)pyrimido[4,5-d]pyrimidine-4(1H)-one] are above 500 nM and above 500 nM.
On to `C[C@H](Nc1nc(N)nc2c1C(=O)N(C)CN2)c1nc2cccc(Cl)c2c(=O)n1-c1cccnc1` [Example 49, (S)-7-amino-5-((1-(5-chloro-4-oxo-3-(pyridine-3-yl)-3,4-dihydroquinazoline-2-yl)ethyl)amino)-3-methyl-2,3-dihydropyrimido[4,5-d]pyrimidine-4(1H)-one], for which the IC50 in test [1] is below 10 nM; in test [2] it was 10 to 500 nM.
The like results for `CC[C@H](Nc1ncnc2c1C(=O)N(C)CN2)c1nc2cccc(F)c2c(=O)n1-c1ccccc1` [Example 41, (S)-5-((1-(5-fluoro-4-oxo-3-phenyl-3,4-dihydroquinazoline-2-yl)propyl)amino)-3-methyl-2,3-dihydropyrimido[4,5-d]pyrimidine-4(1H)-one] were, in that order, 10 to 500 nM and 10 to 500 nM.
As for `CN1CNc2ncnc(N3CCC[C@H]3c3nc4cccc(Cl)c4c(=O)n3-c3cccc(F)c3)c2C1=O` [Example 44, (S)-5-(2-(5-chloro-3-(3-fluorophenyl)-4-oxo-3,4-dihydroquinazoline-2-yl)pyrrolidine-1-yl)-3-methyl-2,3-dihydropyrimido[4,5-d]pyrimidine-4(1H)-one], the IC50 in test [1] is below 10 nM; in test [2], 10 to 500 nM.
Turning to `Nc1nc(N2CCC[C@H]2c2nc3cccc(Cl)c3c(=O)n2-c2cccc(F)c2)c2c(=O)nc[nH]c2n1` [Example 92, (S)-7-amino-5-(2-(5-chloro-3-(3-fluorophenyl)-4-oxo-3,4-dihydroquinazoline-2-yl)pyrrolidine-1-yl)pyrimido[4,5-d]pyrimidine-4(1H)-one], the IC50 in test [1] and in test [2] was above 500 nM each time.
In the case of `CN1CNc2nc(N)nc(N3CCC[C@H]3c3nc4cccc(Cl)c4c(=O)n3-c3cccc(F)c3)c2C1=O` [Example 57, (S)-7-amino-5-(2-(5-chloro-3-(3-fluorophenyl)-4-oxo-3,4-dihydroquinazoline-2-yl)pyrrolidine-1-yl)-3-methyl-2,3-dihydropyrimido[4,5-d]pyrimidine-4(1H)-one], the IC50 is above 500 nM in test [1] and 10 to 500 nM in test [2].
The like results for `CC[C@H](Nc1nc(N)nc2c1C(=O)N(C)CN2)c1nc2cccc(F)c2c(=O)n1-c1ccccc1` [Example 54, (S)-7-amino-5-((1-(5-fluoro-4-oxo-3-phenyl-3,4-dihydroquinazoline-2-yl)propyl)amino)-3-methyl-2,3-dihydropyrimido[4,5-d]pyrimidine-4(1H)-one] were, in that order, 10 to 500 nM and 10 to 500 nM.
Regarding `CN1CNc2ncnc(N3CCC[C@H]3c3nn4ccc(Cl)c4c(=O)n3-c3ccccc3)c2C1=O` [Example 47, (S)-5-(2-(5-chloro-4-oxo-3-phenyl-3,4-dihydropyrrolo[2,1-f][1,2,4]triazine-2-yl)pyrrolidine-1-yl)-3-methyl-2,3-dihydropyrimido[4,5-d]pyrimidine-4(1H)-one], the IC50 in test [1] and in test [2] was 10 to 500 nM throughout.
For the compound `CC(Nc1ncnc2c1C(=O)N(C)CN2)c1cc2ccccc2nc1-c1ccccc1` (stereo not shown) [Example 39, 3-methyl-5-((1-(2-phenylquinoline-3-yl)ethyl)amino)-2,3-dihydropyrimido[4,5-d]pyrimidine-4(1H)-one], the IC50 in test [1] and in test [2] was 10 to 500 nM in each case.
`CN1CNc2nc(N)nc(N3CCC[C@H]3c3cc4cccc(Cl)c4c(=O)n3-c3ccccc3)c2C1=O` [Example 59, (S)-7-amino-5-(2-(8-chloro-1-oxo-2-phenyl-1,2-dihydroisoquinoline-3-yl)pyrrolidine-1-yl)-3-methyl-2,3-dihydropyrimido[4,5-d]pyrimidine-4(1H)-one]: the 50% inhibitory concentration (IC50) in test [1] and in test [2] was above 500 nM each time.
Consider `C[C@H](Nc1nc(N)nc2c1C(=O)N(C)CN2)c1nc2cccc(Cl)c2c(=O)n1-c1cccc(F)c1` [Example 50, (S)-7-amino-5-((1-(5-chloro-3-(3-fluorophenyl)-4-oxo-3,4-dihydroquinazoline-2-yl)ethyl)amino)-3-methyl-2,3-dihydropyrimido[4,5-d]pyrimidine-4(1H)-one], for which the half-inhibitory concentration (IC50) is below 10 nM in test [1] and 10 to 500 nM in test [2].
As to `Cc1cccc(-n2c([C@H](C)Nc3nc(N)nc4[nH]cnc(=O)c34)nc3cccc(Cl)c3c2=O)c1` [Example 84, (S)-7-amino-5-((1-(5-chloro-4-oxo-3-(m-tolyl)-3,4-dihydroquinazoline-2-yl)ethyl)amino)pyrimido[4,5-d]pyrimidine-4(1H)-one], the IC50 in test [1] and in test [2] was 10 to 500 nM each time.
As for `Cc1cccc(-n2c([C@H](C)Nc3ncnc4c3C(=O)N(C)CN4)nc3cccc(Cl)c3c2=O)c1` [Example 37, (S)-5-((1-(5-chloro-4-oxo-3-(m-tolyl)-3,4-dihydroquinazoline-2-yl)ethyl)amino)-3-methyl-2,3-dihydropyrimido[4,5-d]pyrimidine-4(1H)-one], the IC50 in test [1] was below 10 nM; in test [2], 10 to 500 nM.
